# From patent US20090004683A1, “Indicator Agent for Noninflammatory Stress Response and Use Thereof” (priority 2004, published 2009)
# Legend:
# [1] = test system: procaspase-11; assay: Procaspase-11 protein in the adrenal of restraint stress mice (Western blotting); format: in vivo, mouse; conditions: given i.p. during restraint
# Description: (§1) Each mouse was kept in a restrainer for 1 hour, and Ac-YVAD-CHO (200 μM/50 μl PBS(−)), Z-FA-fmk (100 μM/50 μl PBS(−)) and SB-203580 (100 μg/50 μl PBS(−) per mouse) were administered intraperitoneally. 1 and 3 hours after the start of restraint, SOD-1 (20 U) and DPI (30 μg) were administered intraperitoneally to the mouse, and samples were analyzed by Western blotting.
# Western blot analysis of IL-18 and phosphorylated P38MAP kinase in adrenal tissue was performed as described below. The adrenal tissue was homogenized in an immunoprecipitation (IP) buffer solution (50 mM Tris pH 7.4, 150 mM NaCl, 0.5% NP-40 and 0.5% sodium deoxycholate) containing a protease inhibitor mixture (manufactured by Roche Diagnostics) using a Polytron homogenizer. […] The aforementioned membrane was incubated with an antibody (IL-18, phosphorylated (Thr180/Tyr182) P38 MAP kinase, caspase-1 or caspase-11), and the reacted protein was detected using an ECL plus system (manufactured by Amersham biosciences). Procaspase-11 and activated P38 MAP kinase were quantified using a Science Lab 99 image analysis system (manufactured by Fujifilm).
# [2] = test system: Primary culture human renal proximal tubular epithelial cells; assay: IL-18 release from renal tubular epithelial cells with paraquat stimulation; format: cell-based; conditions: renal tubular epithelial cells, 100 nM paraquat 15 minutes; SOD 1-20 U/ml or water-soluble vitamin E 100 nM-10 mM/ml
# Description: Primary culture human renal proximal tubular epithelial cells (purchased from CAMBREX Company) were cultured in a basal medium for renal tubular cells: contents 10 μg/ml hEGF (recombinant human epithelial cell growth factor) 0.5 ml, 5 mg/ml insulin 0.5 ml, 0.5 mg/ml hydrocortisone 0.5 ml, FBS (fetal bovine serum) 2.5 ml, 0.5 mg/ml epinephrine 0.5 ml, 6.5 μg/ml triiodothyronine 0.5 ml, 10 mg/ml transferrin 0.5 ml, 50 mg/ml gentamycin, 50 μg/ml amphotericin-B 0.5 ml), in petri dishes for cell culture 6 cm in diameter at 1.0-2.0×10^6/dish. This was cultured in the aforementioned medium containing 100 nM of paraquat, which is an active oxygen generator, for 15 minutes, after which the medium was exchanged with the same but paraquat-free medium. After the cells were further cultured for 1 hour, the medium was collected, and the concentration of IL-18 protein in the medium was measured.
# [3] = test system: IL-6; assay: Plasma IL-6 level in stress-loaded wild type mice (ELISA); format: in vivo, mouse; conditions: stress-loaded WT mice; FIG. 5B
# Description: (§2) For restraint stress, each mouse was kept in a restrainer (a round plastic tube 27 mm in diameter) for 1, 3 or 6 hours, and IL-18 levels were measured. Regarding the analysis of IL-6, each mouse was restrained as described above, and then housed in the starting cage for 6 hours, after which a measurement was performed.
# (§3) After restraint, each mouse was anesthetized with diethyl ether, and blood was drawn into an EDTA-containing tube. Plasma was separated by centrifugation at 4° C. and 10000×g for 10 minutes, and stored at −80° C. IL-18 and IL-6 were analyzed by ELISA using Quantikine™ immunoassay kit (R&D Systems) and OptEIA™ (BD-Pharmingen), respectively.
# Using IL-18-deficient mice, the relationship between IL-6, which is another stress-related cytokine, and IL-18, was examined. Without stress, IL-6 was undetectable in WT and IL-18 KO, but after 3 hours of stress loading, the IL-6 level was 230 pg/ml in WT and 25 pg/ml in IL-18 KO (FIG. 5A). After liberation from the stress, plasma IL-6 was kept at about 80 pg/ml in WT, but decreased to 5 pg/ml in IL-18 KO (FIG. 5A). Treatment with YVAD-CHO, SOD and anti-IL-18 antibody 70% inhibited the stress-induced increase in plasma IL-6 level in WT (FIG. 5B).
# [4] = test system: IL-18; assay: Plasma IL-18 level in restraint stress mice (ELISA); format: in vivo, mouse; conditions: given i.p. during restraint (Ac-YVAD-CHO 200 μM/50 μl, Z-FA-fmk 100 μM/50 μl, SB-203580 100 μg, SOD-1 20 U, DPI 30 μg)
# Description: as §2, §3
# (§4) The anti-ACTH antiserum (50 μl, 1:1), dexamethasone (1 ng/50 μl PBS(−)) or the anti-IL-18 antibody (50 μl, 1:1) was administered intraperitoneally to each mouse; after 10 minutes elapsed, the animal was kept in a restraint tube for 6 hours. Synthetic ACTH (250 μg/50 μl PBS(−)) was injected to the left leg; after 6 hours elapsed, the mice were subjected to the experiment.
# as §1
# [5] = test system: Primary culture human skin keratinocytes; assay: IL-18 release from keratinocytes with paraquat stimulation; format: cell-based; conditions: keratinocytes, 1 μM paraquat 15 minutes; SOD 1-20 U/ml or water-soluble vitamin E 100 nM-10 mM/ml
# Description: Primary culture human skin keratinocytes (keratinocytes) were cultured in a basal medium for keratinocytes contained in petri dishes for cell culture 6 cm in diameter at 1.0-2.0×10^6/dish. This was cultured in the aforementioned medium containing 1 μM of paraquat, which is an active oxygen generator, for 15 minutes, after which the medium was exchanged with a paraquat-free medium, and the cells were further cultured for 1 hour, after which the medium was collected, and the concentration of IL-18 protein in the medium was measured.
# [6] = test system: Brain microglia; assay: IL-18 release from microglia with paraquat stimulation; format: cell-based, mouse; conditions: microglia, 100 nM paraquat 1 hour; SOD 1-20 U/ml or water-soluble vitamin E 100 nM-10 mM/ml
# Description: Brain microglia isolated from the mouse neonatal brain by the method of Hassan et al. (Hassan N F, Rifat S, Campbell D E, McCawley L J, Douglas S D. J. Leukoc Biol. 1991 July; 50(1):86-92) were cultured at 1.5-2.0×10^6/ml. This was cultured in Dulbecco's minimum essential medium containing 100 nM of paraquat, which is an active oxygen generator, for 1 hour, after which the medium was exchanged with a paraquat-free medium. After further cultivation for 3 hours, the medium was collected, and the concentration of IL-18 protein in the medium was measured.
# [7] = test system: IL-18 precursor; assay: IL-18 (precursor) level in the adrenal of restraint stress mice; format: in vivo, mouse; conditions: given i.p. during restraint
# Description: as §2, §4, §1
# Western blot analysis of IL-18 and phosphorylated P38MAP kinase in adrenal tissue was performed as described below. […] Procaspase-11 and activated P38 MAP kinase were quantified using a Science Lab 99 image analysis system (manufactured by Fujifilm).
substance,measurement,setting,value
SOD: superoxide dismutase (SOD)-1 purchased from Sigma; active oxygen eliminator,stress-induced increase in procaspase-11 protein,[1],reduced
same,activation and release of IL-18 into the medium,[2],suppressed
same,inhibition of the stress-induced increase in plasma IL-6 level,[3],70%
same,stress-induced increase in plasma IL-18 level,[4],reduced
same,activation and release of IL-18 into the medium,[5],suppressed
same,activation and release of IL-18 into the medium,[6],suppressed
same,IL-18 precursor protein level in the adrenal,[7],did not reduce
